From PubChem BioAssay AID434987 (Southern Research Specialized Biocontainment Screening …, 2010)
The source made the active and inactive calls. The rule behind the calls is not given here.

System: M. tuberculosis H37Rv growth inhibition with meropenem
Assay: dose response, H37Rv, with and without meropenem (AID 434987);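 note: growth over 7 days at 37 °C before Alamar Blue read on day 9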
[1] = M. tuberculosis H37Rv growth inhibition, measured here: IC50 without meropenem
[2] = M. tuberculosis H37Rv growth inhibition, measured here: IC90 without meropenem
[3] = measured here: IC90 with meropenem

SMILES | IC50 | IC50 [1] [µM] | IC90 [2] [µM] | IC90 [3] [µM]
COC(=O)C1=C(C)NC(=O)/C1=C\c1cc(C)n(-c2c(C)cccc2C)c1C | 88 µM (inactive) | > 100 | > 100 | 99.8
COc1ccc2ccccc2c1/C=N/NC(=O)c1cccc(Br)c1 | > 100 µM (inactive) | > 100 | > 100 | > 100
CC(C)Cn1c2c(c(O)c(C(=O)Nc3nccs3)c1=O)CCCC2 | 3.22 µM | 45.7 | 52.4 | > 100
CCC(=O)Oc1oc(-c2ccccc2)nc1C=Nc1ccc(C)cc1 | > 100 µM (inactive) | > 100 | > 100 | > 100
CCN(CC)c1ccc(CN2CCCCCC2)cc1 | 43.6 µM (inactive) | 48.1 | > 100 | 49.4
CCOC(=O)c1c(NC(=O)COC(=O)c2ncc(Cl)c(Cl)c2Cl)sc(C(=O)N(C)C)c1C | 24.8 µM (inactive) | 47.3 | 53.4 | 27.7
O=C(NN=C(Cc1ccccc1)Cc1ccccc1)c1ccccc1F | 1.64 µM | > 100 | > 100 | > 50
Cc1ccc(Cn2c(C(CO)Nc3nc(-c4ccc(Cl)c([N+](=O)[O-])c4)cs3)nc3ccccc32)cc1 (stereo not drawn) | > 100 µM (inactive) | > 100 | > 100 | > 100
Cc1noc(NS(=O)(=O)c2ccc(N/C=C\C(=O)c3ccc4c(c3)OCO4)cc2)c1C | 34.2 µM | 91.5 | > 100 | 86
c1ccc2c(c1)CC1CNCc3cccc(c31)S2 (stereo not drawn) | 47.4 µM (inactive) | > 100 | > 100 | > 100
NNC(=S)NC1CC2CC1C1C=CCC21 (stereo not drawn) | 12.4 µM (inactive) | 21.1 | 23.9 | 13.5
CCOC(=O)NC1c2ccccc2Oc2ccccc21 | 37.6 µM | > 100 | > 100 | > 50
Cn1c(/C=N/c2nc3ccccc3[nH]2)nc2ccccc21 | < 0.2 µM | 3.82 | > 100 | 4.17
Cc1onc(-c2ccccc2)c1C(=O)Nc1ccc(-c2nnc3n2CCCCC3)cc1 | 23.8 µM (inactive) | 29.3 | 71.2 | 38.6
CCc1cc(C(=O)O)c(NC(=O)/C=C/c2ccc(OC)cc2)s1 | 8.76 µM | 21.5 | > 100 | 59.7
Cn1c(=O)[nH]c(=O)c2c1nc(Br)n2CCC(=O)c1ccccc1 | 38.6 µM | > 100 | > 100 | > 50
C=CCN(C(=O)CN1CCOCC1)c1nc(C)c(-c2ccccc2)s1 | > 100 µM (inactive) | > 100 | > 100 | > 100
Cc1ccc(Nc2nc(N)nc(CC#N)n2)cc1 | 61.3 µM (inactive) | 75.6 | > 100 | 92.7
O=c1c(N=Nc2ccc(O)cc2)c(-c2ccccc2)[nH]n1-c1ccc([N+](=O)[O-])cc1 | > 100 µM (inactive) | > 100 | > 100 | > 100
Cc1ccc(C(=O)N2CCC3(CC2)Oc2ccc(F)cc2C(=O)C32CC(c3cccnc3)=NO2)s1 (stereo not drawn) | 97.5 µM (inactive) | 94.9 | > 100 | > 100
O=C(Cc1ccccc1Cl)Nc1nc2ccccc2[nH]1 | 9.31 µM | > 100 | > 100 | > 25

SMILES | IC50 | IC50 [1] [µM] | IC90 [2] [µM] | IC90 [3] [µM]
O=[N+]([O-])c1cc(C(F)(F)F)ccc1NCCc1c[nH]c2ccc(O)cc12 | 33.9 µM (inactive) | 52.8 | > 100 | 72.9
COc1ccc(-c2c(C(F)(F)F)oc3cc(OCC(=O)Nc4ccccc4C(F)(F)F)ccc3c2=O)cc1OC | > 100 µM (inactive) | > 100 | > 100 | > 100
Cc1nc(Nc2ccc(Cl)cc2Cl)sc1C(=O)Nc1ccccc1 | > 100 µM (inactive) | > 100 | > 100 | > 100
CC(C)CC(=O)NC(=S)Nc1ccc(N2CCN(C(=O)c3cccs3)CC2)cc1 | > 100 µM (inactive) | > 100 | > 100 | > 100
O=C(N/N=C/c1c(O)n(Cc2ccc(F)cc2)c(=S)[nH]c1=O)c1ccncc1 | 7.75 µM (inactive) | 11.5 | 12.9 | 9.8
CCOC(=O)C1CSC(CC(=O)Nc2ccc(Cl)c(Cl)c2)C(=O)N1 (stereo not drawn) | 10.8 µM | 47.7 | 54.3 | 35.4
Cc1ccccc1C(=O)NC(=S)Nc1sc2c(c1C#N)CCC(C)C2 (stereo not drawn) | > 100 µM (inactive) | > 100 | > 100 | > 100
CCOC(=O)c1ccc(-c2ccc(C=O)o2)cc1 | 29.1 µM (inactive) | 44.6 | > 100 | > 100
O=c1oc(-c2ccccc2F)nc2scc(-c3ccccc3)c12 | 2.19 µM | > 100 | > 100 | 3.05
COc1ccccc1CNC(=O)c1cc2c(C)nn(Cc3ccc(F)cc3)c2s1 | > 100 µM (inactive) | > 100 | > 100 | > 100
CSc1ccccc1NC(=O)c1c(Br)cnn1C | 28.4 µM | 82.7 | > 100 | > 100
CC(C)OC(=O)CSc1nc(N2CCOCC2)c2c(c1C#N)CC(C)(C)OC2 | > 100 µM (inactive) | > 100 | > 100 | > 100
O=C(CCS(=O)(=O)c1ccccc1)N(CCCN1CCOCC1)c1nc2c(F)cccc2s1 | 11.3 µM | > 100 | > 100 | > 25
Nc1ccc(C(=O)O)c(O)c1 | 0.25 µM (inactive) | < 0.2 | 7.65 | 1.88
CC1(C)C[C@@H]1C(=O)N/C(=C\CCCCSC[C@H](N)C(=O)O)C(=O)O | > 100 µM (inactive) | > 100 | > 100 | > 100
c1ccc(-c2ccc(C3=Nn4c(Cn5nnc6ccccc65)nnc4SC3)cc2)cc1 | 53.5 µM (inactive) | 84.4 | > 100 | > 100
Cc1cc(C)c2sc(N(CCCN(C)C)C(=O)COc3ccc(Cl)cc3)nc2c1 | 36.6 µM (inactive) | 53.6 | 80.2 | > 100
O=C(CSc1nnc(-c2cnccn2)n1Cc1ccco1)Nc1ccc(Br)cc1 | 44.2 µM (inactive) | > 100 | > 100 | > 100
COc1ccc(C(=O)CN(C(=O)c2ccc(Cl)cc2)N2C(=O)c3ccccc3C2=O)cc1 | 5.66 µM | 34.9 | > 100 | 22.4
O=C(Nc1ccc(Cl)cc1)C1CC2CCCC(C1)C2=O (stereo not drawn) | > 100 µM (inactive) | > 100 | > 100 | > 100
O=C(CCN1c2ccccc2Sc2ccccc21)Oc1ccccc1 | 8.48 µM | > 100 | > 100 | > 100
